Experimental data reported in patent US20250041408A1, “SMALL MOLECULE IMMUNOPOTENTIATOR CONJUGATES OF NFKB ACTIVATORS AS ADJUVANTS WITH ENHANCED EFFICACY AND REDUCED TOXICITY” (THE UNIVERSITY OF CHICAGO, priority 2021, published 2025).
Blank lines part the entries; values can stand above or below the molecule they belong to.

Key:
[1] = Systemic cytokines in CT26 tumor model after intratumoral injection; type: in vivo, Balb/c mice; conditions: 2 h after intratumoral injection
Protocol: FIGS. 17A-C (A) Outline of in vivo tumor model experiment. (B) Systemic IL-6 levels measured in the serum 2 h after intertumoral injection of compounds. (C) Systemic TNF-α levels measured in the serum 2 h after intertumoral injection of compounds.
0.2×10^6 CT-26 cells were injected subcutaneously into the flank of 6-week-old Balb/c mice (n=10 per group) in 100 μL of PBS. The tumor size was monitored on alternating days. Tumor volumes were measured using the equation V=1/2×L×W×W. When the tumors reached a size of approximately 75 mm3 (day 11), treatment was started. Various formulations (20 nmols of each agonist or PBS) were injected peritumorally every 4 days […]. Mice were euthanized when the tumors reached 20 mm in any linear dimension. Five mice for each group were used for blood analysis. Blood was collected two days post the first injection for hematological toxicity analysis and two hours post the second injection for systemic cytokine analysis.
After 11 days, the tumors were established and intratumoral injections were administered with the SMIP adjuvant and adjuvant dimers. At 2 h and 24 h after these injections, serum and blood were collected to examine systemic cytokines in the serum and perform a hematological analysis on the blood to better quantify adjuvant toxicity. Similar to the OVA vaccination model, the dimer adjuvants induced baseline levels of IL-6 and TNF-α as measured in the serum.

[2] = with CPG in vaccine formulations; vaccine protective effects maintained; cited from earlier work
BMDMs [3] = experiment: TNF-α in supernatant of BMDMs by ELISA; type: cell-based, C57Bl/6 mice; conditions: treated BMDMs; compared with pTLR7/8 and mTLR7/8
OVA = experiment: Serum anti-OVA IgG titers after OVA immunization (ELISA); type: in vivo, C57Bl/6 mice; conditions: immunized days 0 and 14; ELISA at 3 weeks
[4] = tested on: NF-κB in RAW-Blue 264.7 macrophage cells; experiment: RAW-Blue 264.7 macrophage NF-κB assay (polymeric immunomodulator); type: cell-based; conditions: incubated 18 h at 37° C; QUANTIBlue absorbance 620 nm
Protocol: Cells were incubated with each compound for 18 h at 37° C. Supernatant was removed and incubated with QUANTIBlue for 1 h, and the absorbance at 620 nm was measured. Error bars represent standard deviation (SD). Samples were run in triplicate.
RAW264.7 Macrophage (RAW-Blue) NF-κB assay: RAW-Blue cells (passage 5-15) were plated in a 96 well plate at a density of 100,000 cells/well in 180 μL DMEM containing 10% heat-inactivated FBS (HI-FBS) and selective antibiotics. The cells were treated with agonists for […] at 37° C. and 5% CO2. NF-κB activity was measured by a QUANTI-Blue (InvivoGen) assay and the absorbance was measured at 620 nm using a Multiskan FC plate reader (Thermo Scientific).

BMDMs [5] = experiment: Flow cytometry of costimulatory molecules CD40 and CD86 on BMDMs; type: cell-based, C57Bl/6 mice; conditions: 18 h at 37° C
Protocol: FIGS. 2A-B show immune activation as measured by costimulatory molecules CD40 (FIG. 2A) and CD86 (FIG. 2B) on BMDMs. Cells were incubated with each compound for 18 h at 37° C. Error bars represent SD. Samples were run in triplicate. […] Each experiment was repeated thrice with similar results.
Flow Cytometry for Cell Surface Marker Upregulation: BMDCs were plated in untreated 12-well plates at 1×10^6 cells/mL and incubated with agonists in culture media for 18 h at 37° C. with 5% CO2. The cells were released from the plate by pipetting vigorously and centrifuged at 2500 RPM at 4° C. for 10 min. The cell pellet was resuspended in cold FACS buffer (PBS, 10% FBS, and 0.1% sodium azide) buffer (300 μL) and incubated with CD16/32 FcR blocking antibodies (1.0 μg/1×10^6 cells) on ice for 15 min. The cell suspension was pelleted, and the supernatant was removed. Next, the cell pellet was resuspended in cold FACS buffer (100 μL) and stained for CD86 and CD40 in the dark for 30 min. The samples were then washed twice with 300 μL FACS buffer. The pelleted cells were resuspended in cold FACS buffer (200 μL) and kept on ice until being loaded onto the flow cytometer for analysis.

cells from the dLNs = experiment: Cytokines from draining lymph node cells re-stimulated with OVA (CBA); type: in vivo, C57Bl/6 mice; conditions: re-stimulated with OVA for 48 hours

systemic IL-6 levels in serum [1]: comparable
systemic TNF-α levels in serum [1]: comparable
Compound: CCCCCCCCCCCCCCCCCC(=O)NCCCCOn1c(CCCC)nc2c(N)nc3ccccc3c21 [Compound 3M-052]

systemic IL-6 levels in serum [1]: high levels
systemic TNF-α levels in serum [1]: high levels
Compound: CCOCc1nc2c(N)nc3ccccc3c2n1CC(C)(C)O [Compound R848, resiquimod]

Compound: COc1cc(CNC(=O)CCCC/C=C/C(C)C)ccc1O [capsaicin]
pro-inflammatory systemic IL-6 and TNF-α levels [2]: reduce

Compound: C=CCc1ccc(O)c(-c2ccc(O)c(CC=C)c2)c1 [honokiol]
pro-inflammatory systemic IL-6 and TNF-α levels [2]: reduce

Compound: CCCCc1nc2c(N)nc3ccccc3c2n1Cc1ccc(CNC(=O)CCCCCNC(=O)CCC(NC(=O)CNC(=O)C(CCC(=O)NCCCCCC(=O)NCc2ccc(Cn3c(CCCC)nc4c(N)nc5ccccc5c43)cc2)NC(=O)CNC(=O)C(CCC(=O)NCCCCCC(=O)NCc2ccc(Cn3c(CCCC)nc4c(N)nc5ccccc5c43)cc2)NC(=O)CNC(=O)C(CCC(=O)NCCCCCC(=O)NCc2ccc(Cn3c(CCCC)nc4c(N)nc5ccccc5c43)cc2)NC(=O)CNC(=O)C(CCC(=O)NCCCCCC(=O)NCc2ccc(Cn3c(CCCC)nc4c(N)nc5ccccc5c43)cc2)NC(=O)CCC(=O)N2Cc3ccccc3-c3nnn(CCCCCC(=O)NC(Cc4ccc(O)c(O)c4)C(=O)NC(Cc4ccc(O)c(O)c4)C(=O)NC(Cc4ccc(O)c(O)c4)C(=O)NC(Cc4ccc(O)c(O)c4)C(N)=O)c3-c3ccccc32)C(N)=O)cc1 (centres unmarked) [pTLR7/8_mod]
TNF-α concentration in supernatant (BMDMs [3]): smallest increase
serum titers of anti-OVA antibodies (OVA): Highest
NF-κB levels [4]: increased
levels of CD40 (BMDMs [5]): greatest increase
levels of CD86 (BMDMs [5]): greatest increase
amount of IL-6 (FIG. 6B) produced by dLN cells (cells from the dLNs): highest levels
amount of IL-23 (FIG. 6A) produced by dLN cells (cells from the dLNs): highest levels
amount of TNF-α (FIG. 6C) produced by dLN cells (cells from the dLNs): highest levels
